Test results reported in patent US11325892B2, “Compounds and methods for treating cancer” (Mayo Foundation for Medical Education and Research, priority 2014, dated 2022).

Columns and labels:
[1] = tested on: A498, ACHN, and Caki1 cell lines; assay: Oleic acid (OA) rescue assay of cell proliferation in ccRCC cells; type: cell-based; details: EC50 dose of compound with OA (5 μg/μL); all three cell lines
Experimental: (§1) Cells were seeded at 5,000 cells/well in clear-bottom 96-well plates in triplicate in Maintenance Media. Drug treatment was applied at a concentration of 1:1000 in reduced serum (3%) Maintenance Media. After 72 hours, cells were washed with PBS, and stored at −80° C. prior to analysis using CyQuant® Proliferation Analysis Kit (Invitrogen) as per manufacturers' protocol for relative fluorescence units. Alternatively, cells were plated 2×10^5/well in 12-well plates (Midwest Scientific) in triplicate prior to drug treatment. After 120 hour treatment, cell number was established using a Coulter Particle Counter (Beckman). Or, cells were plated (0.5 or 1×10^5/well) in 24-well plates (Midwest Scientific), 3×. After 72 hour treatment, cell number established using Coulter Particle Counter (Beckman). Oleic acid-albumin (Sigma Aldrich) was added to media at 5 μM, and was applied adjuvant to drug treatment. Drug stocks were prepared in DMSO (Sigma) at 1000×. EC50 dosing per cell line was calculated using CalcuSyn® analytical software.
A498, ACHN, and Caki1 cell lines were treated with the EC50 dose of each MF-438, ChemBL375265, SSI-1, SSI-4, SSI-3, and SSI-2 with or without concomitant application of OA (5 μg/μL). […] Representative images of A498 cell morphology and density treated with each compound +/−OA are shown in (FIG. 2B).

[2] = tested on: ATF6-UPRE luciferase reporter in A498 and ACHN cells; assay: ATF6-UPRE luciferase reporter assay; type: cell-based; details: EC50 dose
Experimental: A498 and ACHN cells were transiently transfected with p5×ATF6-GL3 UPR luciferase reporter (Addgene plasmid#11976) and pRL-CMV-renilla (Promega) using Lipofectamine 2000 (Invitrogen). Cells were treated as indicated for 24H, prior to collection and analysis using Promega Dual Luciferase assay kit per manufacturer's specifications. Luciferase activity was measured using Veritas Luminometer (Promega); and results are reported as relative luminescence.
(§2) Activating transcription factor 6 (ATF6) is a key regulator of the unfolded protein response (UPR) that recognizes unfolded protein response elements (UPRE) in the promoter regions of several key mediators of the ER stress response, initiating their transcription (Wang Y, Shen J, Arenzana N, Tirasophon W, Kaufman R J, Prywes R. Activation of ATF6 and an ATF6 DNA binding site by the endoplasmic reticulum stress response. J Biol Chem. Sep. 1, 2000; 275(35):27013-27020). A498 and ACHN transfected with an ATF6-UPRE luciferase reporter were treated with the EC50 doses of ChemBL375265, SSI-1, SSI-4, SSI-3, and SSI-2 with or without OA supplementation were evaluated in order to determine whether the identified compounds could recapitulate activation of the UPR. […] Upregulation of the UPR markers BiP (heat shock 70 kDa protein, GRP78) and CHOP (damage inducible transcript 3, DDIT3) was evaluated by Western blot in A498 and ACHN cells treated with the EC50 doses of ChemBL375265, SSI-1, SSI-4, SSI-3, and SSI-2 with or without OA supplementation.

[3] = tested on: BiP and CHOP expression in A498 and ACHN cells; assay: Western blot for UPR markers BiP and CHOP; type: cell-based; details: EC50 dose; both cell lines; blocked with concomitant OA treatment
Experimental: (§3) Protein extraction and western blot analysis was performed as previously described (Copland J A, Marlow L A, Kurakata S, et al. Novel high-affinity PPARgamma agonist alone and in combination with paclitaxel inhibits human anaplastic thyroid carcinoma tumor growth via p21WAF1/CIP1. Oncogene. Apr 13 2006; 25(16):2304-2317). Primary antibodies included SCD1 (Sigma-Aldrich, #HPA012107), BiP (Cell Signaling, #3183), CHOP (Cell Signaling, #2895), sXBP1(Santa Cruz Biotechnology, #sc-7160), PARP(Cell Signaling, #9542), and β-actin (Sigma-Aldrich, #A5441).
as §2

SCD1 = target: T1, SCD1 (Homo sapiens, UniProt O00767); details: known inhibitors; cited from earlier work
T1 sequence (O00767 1-359): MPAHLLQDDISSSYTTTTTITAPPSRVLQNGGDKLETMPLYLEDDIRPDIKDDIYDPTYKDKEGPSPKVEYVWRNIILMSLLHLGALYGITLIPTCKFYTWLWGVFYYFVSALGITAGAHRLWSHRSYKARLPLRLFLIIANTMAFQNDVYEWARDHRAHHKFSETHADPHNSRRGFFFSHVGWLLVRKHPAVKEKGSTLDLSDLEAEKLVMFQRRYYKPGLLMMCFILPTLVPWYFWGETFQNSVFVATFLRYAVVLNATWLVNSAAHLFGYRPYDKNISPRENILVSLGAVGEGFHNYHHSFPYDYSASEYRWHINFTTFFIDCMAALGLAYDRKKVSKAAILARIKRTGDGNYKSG

[4] = tested on: HK2, a transformed renal epithelial cell line; assay: High-throughput proliferative screen, non-cancerous cells; type: cell-based
Experimental: as §1
In order to identify potential SCD1 inhibitors, a high-throughput proliferative-based screening method was used, with four ccRCC cell lines including A498, ACHN, Caki1, and Caki2. The SCD1 inhibitor MF-438 was included as a positive control. Known compounds ChemBL375265 (Liu G, Lynch J K, Freeman J, et al. Discovery of potent, selective, orally bioavailable stearoyl-CoA desaturase 1 inhibitors. Journal of medicinal chemistry. Jun. 28, 2007; 50(13): 3086-3100) (SetA.100) and SAR707 (Voss M D, Zoller G, Matter H, et al. Discovery and pharmacological characterization of SAR707 as novel and selective small molecule inhibitor of stearoyl-CoA desaturase (SCD1). European journal of pharmacology. May 5, 2013; 707(1-3): 140-146) (TC03.100) were included as single-blinded positive controls, and are indicated with an asterisk (*). […]

kidney cancer cells = assay: Combination with mTor inhibitor temsirolimus, cell proliferation; type: cell-based; details: different concentrations with 0, 0.1, 1, and 10 nM temsirolimus
ATC cells = assay: Proliferative dose response of thyroid cells; type: cell-based; details: THJ29T, THJ16T, and KTC2; 72H
Experimental: as §1
The efficacy of pharmacologic inhibition of this enzyme on tumor cell proliferation after a 72H treatment was determined, using A939572-a commercially available small molecule SCD1 inhibitor (Xin Z, Zhao H, Serby M D, Liu B, Liu M, Szczepankiewicz B G, Nelson L T, Smith H T, Suhar T S, Janis R S, Cao N, Camp H S, Collins C A, Sham H L, Surowy T K, Liu G. Discovery of piperidine-aryl urea-based stearoyl-CoA desaturase 1 inhibitors. Bioorg Med Chem Lett. 2008; 18(15):4298-302). […] Despite conspicuous SCD1 expression in 4 of the 5 FTC cells tested, no response to A939572 was observed (FIG. 10D).
THJ29T, THJ16T, and KTC2 were treated with carfilzomib (FIG. 12A) or bortezomib for 72H in order to establish EC50 values. […] Anti-proliferative drug synergy was evaluated in THJ29T and THJ16T treated with either A939572 or MF-438 in combination with either bortezomib or carfilzomib for 48H. Synergy was assessed using CalcuSyn analytical software, which determines the combination index (CI) based on the Chou-Talalay method where CI values >1 represent an antagonistic effect and values <1 represent synergy, and lower values signify enhanced synergy (Chou T C, Talalay P. Analysis of Combined Drug Effects—a New Look at a Very Old Problem. Trends in Pharmacological Sciences. 1983; 4(11):450-4).

[5] = tested on: PARP cleavage and CHOP expression in THJ29T and THJ16T; assay: Western blot for PARP cleavage and CHOP expression, combinatorial therapy; type: cell-based; details: EC50 doses, 48H
Experimental: as §3
THJ29T and THJ16T treated for 48H with EC50 doses of either A939572 or MF-438 in combination with either carfilzomib or bortezomib were probed for PARP cleavage and CHOP expression, both markers indicative of apoptosis (FIGS. 14A-B, 15A-B). […] Cell death was additionally examined via flow cytometry using propidium iodide staining. THJ29T and THJ16T were treated for 48H with EC50 doses of either A939572 or MF-438 in combination with either carfilzomib or bortezomib prior to staining and analysis.

[6] = tested on: THJ16T ATC cell xenograft; assay: THJ16T xenograft model; type: in vivo, female athymic nu/nu mice
Experimental: Formalin-fixed, paraffin-embedded subject tissues were mounted on slides, blocked with Diluent (DakoCytomation) for 30 min, and then probed for SCD (Sigma-Aldrich, #HPA012107). IHC scoring was performed as previously described (von Roemeling C A, Marlow L A, Wei J J, et al. Stearoyl-CoA desaturase 1 is a novel molecular therapeutic target for clear cell renal cell carcinoma. Clin Cancer Res. May 1 2013; 19(9):2368-2380). Cases where insufficient tumor tissue presented were excluded. 20× images were obtained using Scanscope XT and Imagescope software.
1×10^6 THJ16T ATC cells were subcutaneously injected in female athymic nu/nu mice (Harlan Laboratories). Treatment was initiated once tumor volumes reached 50-100 mm^3. MF-438 was suspended in 0.5% carboxymethyl-cellulose containing strawberry drink flavoring(0.1 g/mL) in sterilized H2O at 25 mg/kg in a 100 μl dose, and administered via oral gavage once daily. Carfilzomib was solubilized in DMSO (4% of FC), suspended in 100% corn oil at 4 mg/kg per 50 uL dose and administered via intraperitoneal injection twice weekly on consecutive days. Tumor volume(0.5236[L*W*H]) and body weight were measured 2×/week. N=10 mice/group.
MF-438 was tested in combination with carfilzomib in vivo in a THJ16T xenograft model. […] J Clin Endocrinol Metab. 2010; 95(12):5338-47). […] Saline was administered as necessary. These adverse events resolved 24-48 hours after the second administration of carfilzomib. […] However, no other significant adverse events were observed. […] IHC analysis of tumors resected from each treatment group was performed.

[7] = 24H, both cell lines A498 and ACHN, completely blocked with OA

Row | SMILES | rescue of cell proliferation with OA [1] | luciferase activity [2, 7] | BiP and CHOP expression [3] | EC50 (ATC cells) | also measured
1 | CNC(=O)c1ccc(N2CCC(Oc3ccccc3Cl)CC2)nn1 [ChemBL375265] | Near total rescue of cell proliferation | significant upregulation of luciferase activity | strongly induced both BiP and CHOP expression |  | IC50 (SCD1): 400 nM
2 | CNC(=O)c1ccccc1OCC(=O)N1CCN(C(=O)c2ccccc2C(F)(F)F)CC1 [SSI-1, N-Methyl-2-(2-oxo-2-{4-[2-(trifluoromethyl)benzoyl]piperazin-1-yl}ethoxy)benzamide] | Near total rescue of cell proliferation | significant upregulation of luciferase activity | strongly induced both BiP and CHOP expression |  | 
3 | O=C(Nc1ccc(OCc2ccccc2)nc1)N1CCN(C(=O)c2ccccc2C(F)(F)F)CC1 [SSI-2, 2-(benzyloxy)-5-{[hydroxy({4-[2-(trifluoromethyl)benzoyl]piperazin-1-yl})methyl]amino}-1,2-dihydropyridin-2-ylium-1-ide] | Near total rescue of cell proliferation | significant upregulation of luciferase activity | strongly induced both BiP and CHOP expression |  | reduction in cell proliferation [4]: approximately 20%; kidney cancer cell proliferation (kidney cancer cells): reduced kidney cancer cell proliferation
4 | O=C(NCc1ccnc(OCc2ccccc2)c1)N1CCN(C(=O)c2ccccc2C(F)(F)F)CC1 [SSI-3] | Near total rescue of cell proliferation |  | strongly induced both BiP and CHOP expression |  | luciferase activity ([2]; ACHN cells): induced reversible luciferase activity
5 | CC(C)C[C@H](NC(=O)[C@H](Cc1ccccc1)NC(=O)c1cnccn1)B(O)O [bortezomib] |  |  |  | low nanomolar dose range | 
6 | CC(C)C[C@H](NC(=O)[C@H](CCc1ccccc1)NC(=O)CN1CCOCC1)C(=O)N[C@@H](Cc1ccccc1)C(=O)N[C@@H](CC(C)C)C(=O)[C@@]1(C)CO1 [carfilzomib] |  |  |  | low nanomolar dose range | PARP cleavage as compared to DMSO control [5]: significant PARP cleavage; reduction in mean tumor burden as compared to the placebo control ([6]; MF-438 25 mg/kg oral once daily, carfilzomib 4 mg/kg i.p. twice weekly): 21%; tumor response / mean tumor volume course ([6]; THJ16T xenograft): temporarily plateau; adverse events ([6]; mice bearing THJ16T xenograft): Dehydration and acute inflammation; survivin expression (IHC) ([6]; mouse, in vivo): induced survivin expression; CD31 (IHC), tumor vascularization ([6]; versus placebo control): trend toward decreased CD31; ki67 staining (IHC of resected tumors) ([6]; versus placebo control): trend of decreased ki67 staining; cleaved caspase-3 (IHC) ([6]; versus placebo control, only the combination group achieved statistical significance): increased cleaved caspase-3; HERPUD1 (IHC), marker for ER stress ([6]; versus placebo control, statistically significant combinatorial values): Increased HERPUD1
